Source: a melting point compilation (Tetko et al.)

melting point	Structure (SMILES)
97 to 99 °C	N#Cc1cc(Br)ccc1N=C=O
114 to 116 °C	COC(=O)CCCNc1nc2ccccc2s1
116 to 118 °C	O=c1oc2ccccc2o1
99 to 101 °C	Cn1cc(Br)nn1
282 to 284 °C	O=C(Cc1ccc(Br)cc1)Nc1ccc(C(=O)O)cc1
67 to 69 °C	Nc1ccnn1CCc1ccccc1
136 to 138 °C	COC(=O)c1c[nH]c(CC(C)C)n1
148 to 150 °C	CCOC(=O)c1sc(NC(=O)CCl)c(C(=O)OC(C)(C)C)c1C
86 to 88 °C	O=C(O)CCCN1C(=O)c2cccc3cccc(c23)C1=O
204 to 206 °C	Cc1cc(C(=O)O)c(C)n1-c1ccc2c(c1)OCCO2
78 to 80 °C	CS(=O)(=O)CCCC(=O)O
57 to 59 °C	CCOc1cc(C=CC#N)ccc1OC
153 to 155 °C	Cc1[nH]n(C(N)=S)c(=O)c1CCO
86 to 88 °C	Cc1cc(S(N)(=O)=O)c(C)o1
86 to 90 °C	Cc1cc(C(=O)CCl)c(C)n1-c1ccccc1F
91 to 93 °C	O=C(NC=C(Cl)Cl)c1cccc(Br)c1
82 to 84 °C	COC(=O)c1ccc(S(=O)(=O)Cl)c(Br)c1
175 to 177 °C	CC(C)(C)S(=O)(=O)Cc1cccc(N)c1
143 to 145 °C	O=C(O)c1ccc(OCC(F)(F)C(F)F)nc1
147 to 149 °C	NC(=O)N1CCC(O)CC1
154 to 156 °C	Nc1cc(Cl)ccc1-n1ccnc1
160 to 162 °C	COc1cc(C=O)cc2sc(=O)oc12
136 to 138 °C	O=C(O)Cc1csc(-c2ccco2)n1
204 to 206 °C	O=C(Nc1ccccc1C(=O)O)c1ccccc1I

melting point	Structure (SMILES)
93 to 95 °C	O=C(O)CCCNC(=O)c1ccc(F)cc1
241 to 243 °C	COc1cc(OC)cc(C(=O)Nc2ccc(O)c(C(=O)O)c2)c1
117 to 119 °C	C=CC(=O)Nc1ccc(OCC)c(OC)c1
114 to 116 °C	NC(=NO)c1ccccc1CN1CCCCC1
98 to 110 °C	Cc1cc(C(=O)CCl)c(C)n1-c1ccc2c(c1)OCO2
206 to 208 °C	O=C(NC(Cc1ccccc1)C(=O)O)c1cccnc1 (configuration not stated)
169 to 171 °C	Cc1cc2ncn(C(C)c3ccccc3)c2cc1C (configuration not stated)
82 to 84 °C	O=C(CCl)NCCc1c[nH]c2ccccc12
125 to 127 °C	O=C(O)c1cccc(C(=O)N2CCCC2)n1
121 to 123 °C	Nc1cccc(NC(=O)N2CCCCCC2)c1
131 to 133 °C	O=C(O)COc1ccc(S(=O)(=O)Cl)cc1F
230 to 232 °C	O=C(O)c1cc2c(F)cc(Br)cc2[nH]1
107 to 109 °C	CS(=O)(=O)c1cccc(C(=O)c2ccc(Cl)cc2)c1
55 to 57 °C	Nc1ccc(Sc2ccccc2)c(Cl)c1
146 to 148 °C	COc1ccccc1NC(=O)CC(N)=S
51 to 53 °C	COC(=O)c1cccc(S(=O)(=O)Cl)c1
129 to 131 °C	CS(=O)(=O)c1cccc(C(=O)c2ccc(F)cc2F)c1
114 to 116 °C	O=CN1CCN(C(=NS(=O)(=O)c2ccccc2)C(F)(F)F)CC1
289 to 291 °C	O=C(O)c1ccc(-c2cccs2)[nH]c1=O
145 to 147 °C	NC(=O)c1cccnc1N1CCNCC1
125 to 127 °C	CC(C)(C)OC(=O)NC(C)(C)C(C)(C)C(=O)O
151 to 155 °C	Sc1nnc(C2COc3ccccc3O2)o1 (configuration not stated)
178 to 180 °C	O=C(O)c1ccc(Cl)c(S(=O)(=O)Nc2ccccc2N2CCOCC2)c1
235 to 237 °C	CC(C)C(NC(=O)C=Cc1ccc(C(N)=O)cc1)C(=O)O (configuration not stated)

melting point	Structure (SMILES)
135 to 137 °C	CS(=O)(=O)Cc1cc(N)ccc1Cl
58 to 60 °C	CC(C)(C)OC(=O)NC(CN)CN
319 to 321 °C	O=c1c2ccccc2[nH]c2ccc(O)cc12
148 to 150 °C	CC(C)NC(=O)c1ccccc1N
178 to 180 °C	O=C(Nc1nccs1)C1CCCNC1 (configuration not stated)
136 to 138 °C	OC(c1ccncc1)c1ccc(F)cc1 (configuration not stated)
81 to 83 °C	CCOC(=O)c1c(N)sc2c1CCN(C(C)C)C2
61 to 63 °C	CCCNc1cc(F)ccc1[N+](=O)[O-]
185 to 187 °C	Nc1ccc(C(=O)N2CCc3ccccc32)cc1
125 to 127 °C	O=Cc1ccc(OCC(=O)Nc2ccccc2)cc1
111 to 113 °C	NNC(=O)C1COc2ccccc2O1 (configuration not stated)
101 to 105 °C	OCc1cc(Cl)c2c(c1)OCO2
107 to 109 °C	O=c1[nH]cnc2sc3c(c12)CCCCC3
159 to 161 °C	NC(=S)NCc1ccc(Br)cc1
112 to 114 °C	NC(=O)Cn1ccc(N)n1
229 to 231 °C	O=C(O)c1ccc2nnn(O)c2c1
146 to 148 °C	O=Cc1ccc(OC(F)(F)C(=O)O)cc1
304 to 306 °C	O=c1[nH]cc(N2CCOCC2)c(=O)[nH]1
256 to 258 °C	Nc1ccc(S(=O)(=O)Nc2cccnc2)cc1
151 to 153 °C	O=C(O)CCn1ncc2ccc([N+](=O)[O-])cc21
162 to 164 °C	CC(C)NS(=O)(=O)c1cccc(C(=O)O)c1
187 to 189 °C	O=C(O)c1ccn(-c2ccccc2Cl)n1
102 to 104 °C	O=C(O)c1ccc2c(c1)ncn2Cc1ccccc1
87 to 89 °C	CCn1c(C)cc(C=O)c1C

melting point	Structure (SMILES)
94 to 96 °C	CC(Cl)C(=O)Nc1cccc(I)c1 (configuration not stated)
209 to 211 °C	Cc1cn(-c2ccccc2Cl)nc1C(=O)O
96 to 98 °C	C#CCNC(=O)c1ccccc1N
123 to 125 °C	O=Cc1cc(-n2ccnc2)cs1
220 to 224 °C	N=C(N)NCCC(=O)O
241 to 243 °C	Cc1ccn2c(=O)c(C(=O)O)cnc2c1
42 to 44 °C	Cc1c(C(C)N)cnn1-c1ccc(F)cc1 (configuration not stated)
122 to 124 °C	COC(=O)Nc1ccc(Br)cc1
129 to 131 °C	O=C(O)CCc1nc(-c2cc(Br)cs2)no1
136 to 138 °C	O=[N+]([O-])c1ccc(C2CN=C(Nc3ccccc3)S2)cc1 (configuration not stated)
201 to 203 °C	O=C(O)c1cc(Cl)c(Cl)cc1C(=O)O
145 to 147 °C	CCc1nc(C(=O)O)nn1-c1ccccc1
155 to 157 °C	NNc1ccnc2ccccc12
236 to 238 °C	O=C1Nc2cc(F)c([N+](=O)[O-])cc2C1=O
121 to 123 °C	Nc1ccnc(Oc2ccccc2Cl)c1
141 to 143 °C	O=c1[nH]c2c(s1)CCCC2
113 to 115 °C	COC(=O)c1c(O)c(Cl)cc(Cl)c1Cl
179 to 181 °C	Cn1cc(C(=O)O)c(-c2cccs2)n1
178 to 180 °C	Cc1cc(=O)n2c(C)csc2c1C#N
89 to 91 °C	O=C(O)Cc1csc(-c2ccccc2)n1
87 to 89 °C	CC(Cl)C(=O)Nc1ccc([N+](=O)[O-])cc1Cl (configuration not stated)
128 to 130 °C	Cc1occc1-c1cc(N)n(CCO)n1
144 to 146 °C	Nc1nc2c(s1)COCC2
138 to 140 °C	COc1ccc(Sc2nsc(N)n2)cc1

melting point	Structure (SMILES)
225 to 227 °C	NNC(=O)CSc1n[nH]c(=O)[nH]c1=O
169 to 171 °C	O=C(O)c1c(C(F)(F)F)noc1C(F)(F)F
39 to 41 °C	N#Cc1ccnc(OC2CCC2)c1
258 to 262 °C	CC(=O)N1CCN(S(=O)(=O)c2cccc(C(=O)O)c2)CC1
36 to 38 °C	Cc1cc(C(=O)CCl)c(Cl)cc1F
299 to 301 °C	Cc1[nH]c2ccccc2c(=O)c1C(C)C
93 to 95 °C	Cc1ccc(-n2[nH]c(-c3ccco3)cc2=N)cc1
180 to 185 °C	CC(=O)c1ccc2c(c1)Nc1ccccc1S2
125 to 127 °C	O=S(=O)(c1ccc(Cl)c(Cl)c1)N1CCNCC1
92 to 94 °C	CCS(=O)(=O)CCOc1ccc(S(=O)(=O)Cl)cc1
157 to 159 °C	Nc1ccc(C(=O)NCCN2CCOCC2)cc1
257 to 259 °C	CS(=O)(=O)c1cc(N)cc(C(=O)O)c1
147 to 149 °C	COc1cc(C(N)=NO)ccc1O
209 to 211 °C	O=C(O)c1c[nH]cc1-c1ccc([N+](=O)[O-])cc1
181 to 183 °C	Cc1ccc(C(N)=O)cc1O
184 to 186 °C	CN1CCN(C2=c3ccccc3=Nc3ccc(Cl)cc3N2)CC1
124 to 126 °C	O=[N+]([O-])c1ccc(C2NCCS2)cc1 (configuration not stated)
160 to 162 °C	CN(C)S(=O)(=O)c1ccc2c(c1)CCCN2
202 to 206 °C	Cc1ccc(-n2c(C)c(C)c3c(N)ncnc32)cc1
179 to 181 °C	NC(CC(=O)N1CCCCC1)=NO
171 to 173 °C	COc1ccc(N2CC(C(=O)O)CC2=O)cc1 (configuration not stated)
337 to 339 °C	CC1CCc2c(sc3nc(S)nc(S)c23)C1 (configuration not stated)
138 to 140 °C	CC(C)n1c(S)nc2ccccc21
106 to 110 °C	CC(=O)c1cccc(S(=O)(=O)NCCC(=O)O)c1

melting point	Structure (SMILES)
209 to 211 °C	NS(=O)(=O)CCN1C(=O)c2ccccc2C1=O
109 to 111 °C	CC(C)n1ncc(C(=O)O)c1N
124 to 126 °C	O=S1(=O)CCNC(c2ccccc2)C1 (configuration not stated)
138 to 140 °C	CC(C)=CCSc1ccccc1C(=O)O
238 to 240 °C	NS(=O)(=O)c1cccc(C(=O)O)c1
52 to 54 °C	O=[N+]([O-])c1c(F)cccc1S(=O)(=O)Cl
152 to 154 °C	O=C(O)CNC(=O)C(F)(F)F
54 to 56 °C	COC(=O)c1sc(Cl)nc1Cl
138 to 140 °C	Cc1noc2nc(-c3cccs3)cc(C(=O)O)c12
258 to 260 °C	COc1ccc(C(=O)O)cc1S(=O)(=O)Nc1ccc(C)cc1
138 to 140 °C	O=c1ccc(Cl)n[nH]1
87 to 89 °C	O=c1c(Cl)c(Cl)cnn1Cc1ccccc1
159 to 161 °C	Cc1ccc(CC(=O)O)cn1
156 to 158 °C	CC(C)Oc1ccc(/C=C/C(=O)O)cc1
132 to 134 °C	Cc1cc(F)c(S(N)(=O)=O)cc1F
334 to 336 °C	Cc1cc(-c2nc3ccccc3n2C)c(=O)[nH]n1
97 to 99 °C	NS(=O)(=O)CC(F)(F)F
149 to 151 °C	CC1C(=O)NCCN1C(=O)c1ccco1 (configuration not stated)
168 to 170 °C	Cc1cccc(NC(=O)Nc2cccc3c2NCCC3)c1

Structure (SMILES)	melting point
CCC(Br)C(N)=O (configuration not stated)	108 to 110 °C
O=C(CCl)c1cc(Cl)sc1Cl	43 to 45 °C
NS(=O)(=O)c1ccc(N2CCNCC2)cc1	219 to 221 °C
